Results published in PubChem BioAssay AID2060343 (Molecular Pharmacology Branch, DTP, NCI, 2025).

Tested on: 138582-337-R-J1-PDC spheroids with HUVEC/MSC, viability
Experiment: Anticancer human tumor 138582-337-R-J1-PDC patient-derived Merkel cell tumor cell line growth inhibition [IpAb]
Settings: for IC50: curve of first compound; for viability, T/C: stronger effect = lower value; active means viability on the fitted dose curve at most 10% of control; inactive means the rest
In short: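 Combinations with ipatasertib or abemaciclib were tested on tumour spheroids holding HUVEC (25%) and MSC (15%) alongside 60% malignant cells. Top concentration was at or near clinical Cmax (10 microM if undefined), descending in half-log steps.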
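Further: spheroids exposed to compounds for seven days.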
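Wherever viability, T/C is given: 100% = DMSO vehicle control viability.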

Cn1ncc(Cl)c1-c1cc(C(=O)NC(CN)Cc2cccc(F)c2)sc1Cl (stereo not given) + CCN1CCN(Cc2ccc(Nc3ncc(F)c(-c4cc(F)c5nc(C)n(C(C)C)c5c4)n3)nc2)CC1
1.5 µM: IC50 (second compound 0.01 µM)
1.27 µM: IC50 (second compound 0.0316 µM)
1.2 µM: IC50 (second compound 0.1 µM)
inactive: viability, T/C (second compound 0.01 µM, first compound 0.0316 µM) 88.8% | viability, T/C (second compound 0.01 µM, first compound 0.1 µM) 73.4% | viability, T/C (second compound 0.01 µM, first compound 0.316 µM) 61.9% | viability, T/C (second compound 0.01 µM, first compound 1 µM) 50.3% | viability, T/C (second compound 0.01 µM, first compound 3.16 µM) 50.6% | viability, T/C (second compound 0.0316 µM, first compound 0.0316 µM) 83.8% | viability, T/C (second compound 0.0316 µM, first compound 0.1 µM) 70.8% | viability, T/C (second compound 0.0316 µM, first compound 0.316 µM) 58.5% | viability, T/C (second compound 0.0316 µM, first compound 1 µM) 50.2% | viability, T/C (second compound 0.0316 µM, first compound 3.16 µM) 45.4% | viability, T/C (second compound 0.1 µM, first compound 0.0316 µM) 84.4% | viability, T/C (second compound 0.1 µM, first compound 0.1 µM) 84.6% | viability, T/C (second compound 0.1 µM, first compound 0.316 µM) 61.1% | viability, T/C (second compound 0.1 µM, first compound 1 µM) 48.9% | viability, T/C (second compound 0.1 µM, first compound 3.16 µM) 40.7% | viability, T/C (second compound 0.316 µM, first compound 0.0316 µM) 92.8% | viability, T/C (second compound 0.316 µM, first compound 0.1 µM) 81.8% | viability, T/C (second compound 0.316 µM, first compound 0.316 µM) 68% | viability, T/C (second compound 0.316 µM, first compound 1 µM) 52.1% | viability, T/C (second compound 0.316 µM, first compound 3.16 µM) 35.3% | viability, T/C (second compound 1 µM, first compound 0.0316 µM) 94.2% | viability, T/C (second compound 1 µM, first compound 0.1 µM) 95.3% | viability, T/C (second compound 1 µM, first compound 0.316 µM) 70.3% | viability, T/C (second compound 1 µM, first compound 1 µM) 39.9% | viability, T/C (second compound 1 µM, first compound 3.16 µM) 25.1%
active: viability, T/C (second compound 0.01 µM, first compound 10 µM) 0.19% | viability, T/C (second compound 0.0316 µM, first compound 10 µM) 0.24% | viability, T/C (second compound 0.1 µM, first compound 10 µM) 0.17% | viability, T/C (second compound 0.316 µM, first compound 10 µM) 0.21% | viability, T/C (second compound 1 µM, first compound 10 µM) 0.27%
1.19 µM: IC50 (second compound 0.316 µM)
0.792 µM: IC50 (second compound 1 µM)
